The numbers were not newly measured in patent US20040146462A1, “Contrast agents” (priority 1998, published 2004), which cites them from elsewhere.

In the data set the test system is coronary blood flow in healthy myocardial tissue. The conditions noted are these: administration of adenosine.

With `Nc1ncnc2c1ncn2[C@@H]1O[C@H](CO)[C@@H](O)[C@H]1O` [adenosine], the “increase in coronary blood flow in healthy myocardial tissue” value is reported as “in excess of fourfold”.
